13 compounds from patent publication US9889122B2, “Positive allosteric modulators of nicotinic acetylcholine receptor” (H. Lundbeck A/S, priority 2011, dated 2018) can be followed below.

The target of the experiment is T1, human α7 receptor (Homo sapiens, UniProt P36544).
T1 construct: host or cells: rat GH4C1 cell line
T1 sequence (P36544 23-502): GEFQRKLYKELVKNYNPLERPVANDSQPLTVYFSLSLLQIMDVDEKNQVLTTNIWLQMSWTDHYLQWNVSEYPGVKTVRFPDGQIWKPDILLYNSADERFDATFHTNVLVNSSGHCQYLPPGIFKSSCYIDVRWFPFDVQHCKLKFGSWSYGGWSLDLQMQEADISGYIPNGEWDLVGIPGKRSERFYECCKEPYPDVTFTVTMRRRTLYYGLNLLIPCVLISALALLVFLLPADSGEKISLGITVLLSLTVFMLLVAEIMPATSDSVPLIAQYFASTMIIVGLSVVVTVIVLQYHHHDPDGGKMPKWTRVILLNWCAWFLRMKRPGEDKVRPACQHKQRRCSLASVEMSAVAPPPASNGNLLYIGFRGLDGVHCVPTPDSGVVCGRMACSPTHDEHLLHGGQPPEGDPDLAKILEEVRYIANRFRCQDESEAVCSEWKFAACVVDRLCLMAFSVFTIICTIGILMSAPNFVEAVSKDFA
Description: α7 NNR flux assay (FDSS Ca assay, Calcium-4 dye, positive allosteric modulation of acetylcholine response). It is filed as cell-based. The conditions noted are these: human α7 receptor stably expressed in rat GH4C1 cell line; acetylcholine 20 μM (~EC100); % modulation relative to reference PNU-120596 set to 100%. The method, then: The nicotinic acetylcholine receptor α7 is a calcium-permeable ion channel, whose activity can be measured by over expression in mammalian cells or oocytes in this version of the assay, the human α7 receptor is stably expressed in the rat GH4C1 cell line. The assay was used to identify positive allosteric modulators (PAMs) of the α7 receptor. Activation of the channel was measured by loading cells with the calcium-sensitive fluorescent dye Calcium-4 (Assay kit from Molecular Devices), and then measuring real-time changes in fluorescence upon treatment with test compounds.
The cell line ChanClone GH4C1-nAChRalpha7 from Genionics was seeded from frozen stock in 384-well plates in culture media 2-3 days before experiment to form an approximately 80% confluent layer on the day of experiment.
Two or three days before the experiment the cells were seeded in 384 well plates from Greiner bio-one (781946, CELLCOAT, Poly-D-Lysine, black, μClear).
The cells were seeded in 384 well plates with 30 μL/well (30000 cells/well) while stirring the cell suspension or otherwise preventing the cells from precipitating.
The loading buffer was 5% v/v Calcium-4 Kit and 2.5 mM Probenecid in assay buffer.
Culture media were removed from the cell plates and 20 μL loading buffer was added in each well. The cell plates were placed in trays and incubated 90 minutes in the incubator (37° C.). Thereafter the plates were incubated 30 minutes at room temperature, still protected from light.
The assay buffer was HBSS with 20 mM HEPES, pH 7.4 and 3 mM CaCl2.
200 nL 10 mM compound solution in DMSO was diluted in 50 μL assay buffer. The final test concentrations in the cell plates were 20-10-5-2.5-1:25-0.625-0.312-0.156-0.078-0.039 μM. Assay buffer and 3 μM PNU-120596 were used for control.
The agonist acetylcholine was added to a final concentration of 20 μM (˜EC100).
In the FDSS7000 the Ex480-Em540 was measured with 1 second intervals. The baseline was made of 5 frames before addition of test compounds, and 95 frames more were made before addition of acetylcholine. The measurement stopped 30 frames after the 2nd addition. Raw data for each well were collected as “the maximum fluorescence count” in the interval 100-131 seconds and as “the average fluorescence count” in the interval 96-100 seconds. The positive allosteric modulation in the 2nd addition was the enhancement of agonist response with test compound compared to agonist alone.
Results were calculated as % modulation of test compound compared to the reference PNU-120596 set to 100%.
`COCc1ccc([C@H](C)NC(=O)[C@H]2C[C@@H]2c2ccccc2)cn1` [Compound 9, (1S,2S)-2-Phenyl-cyclopropanecarboxylic acid [(S)-1-(6-methoxymethyl-pyridin-3-yl)-ethyl]-amide]: the EC50 (usually the midpoint of the concentration-response curve) worked out at 6200 nM. The result for `C[C@H](NC(=O)[C@H]1C[C@@H]1c1ccccc1)c1cnc2c(c1)OCCO2` [Compound 16, (1S,2S)-2-Phenyl-cyclopropanecarboxylic acid [(S)-1-(2,3-dihydro-[1,4]dioxino[2,3-b]pyridin-7-yl)-ethyl]-amide] reads 6800 nM. The result for `COC[C@H](NC(=O)[C@H]1C[C@@H]1c1ccccc1)c1ccc(O[C@H]2CCOC2)nc1` [Compound 48, (1S,2S)—N-[(1R)-2-methoxy-1-[6-[(3S)-tetrahydrofuran-3-yl]oxy-3-pyridyl]ethyl]-2-phenyl-cyclopropanecarboxamide] reads 1700 nM; that for `CCOc1ncc([C@H](C)NC(=O)[C@H]2C[C@@H]2c2ccccc2)cn1` [Compound 17, (1S,2S)-2-Phenyl-cyclopropanecarboxylic acid [(S)-1-(2-ethoxy-pyrimidin-5-yl)-ethyl]-amide], 3700 nM; that for `O=C(N[C@@H](CO)c1ccc(C(F)(F)F)nc1)[C@H]1C[C@@H]1c1ccccc1` [Compound 22, (1S,2S)-2-Phenyl-cyclopropanecarboxylic acid [(R)-2-hydroxy-1-(6-trifluoromethyl-pyridin-3-yl)-ethyl]-amide], 5500 nM.

As to `[2H]C([2H])(C)Oc1ccc([C@H](CO)NC(=O)[C@H]2C[C@@H]2c2ccc(F)cc2)cn1` [Compound 37, (1S,2S)-2-(4-Fluoro-phenyl)-cyclopropanecarboxylic acid [(R)-1-(6-(1,1-d2)-ethoxy-pyridin-3-yl)-2-hydroxy-ethyl]-amide], the EC50 came to 700 nM. The result for `CCCOc1ccc([C@H](CO)NC(=O)[C@H]2C[C@@H]2c2ccccc2)cn1` [Compound 21, (1S,2S)-2-Phenyl-cyclopropanecarboxylic acid [(R)-2-hydroxy-1-(6-propoxy-pyridin-3-yl)-ethyl]-amide] reads 640 nM. The result for `O=C(N[C@@H](CO)c1ccc(O[C@@H]2CCOC2)nc1)[C@H]1C[C@@H]1c1ccccc1` [Compound 43, (1S,2S)-2-Phenyl-cyclopropanecarboxylic acid ((R)-2-hydroxy-1-{6-[(R)-(tetrahydro-furan-3-yl)oxy]-pyridin-3-yl}-ethyl)-amide] reads 2900 nM; that for `C[C@H](NC(=O)[C@H]1C[C@@H]1c1ccccc1)c1ccc(C(F)(F)F)nc1` [Compound 6, (1S,2S)-2-Phenyl-cyclopropanecarboxylic acid [(S)-1-(6-trifluoromethyl-pyridin-3-yl)-ethyl]-amide], 5200 nM; that for `O=C(N[C@@H](CO)c1ccc(OC2CCC2)nc1)[C@H]1C[C@@H]1c1cccc(F)c1` [Compound 41, (1S,2S)-2-(3-Fluoro-phenyl)-cyclopropanecarboxylic acid [(R)-1-(6-cyclobutoxy-pyridin-3-yl)-2-hydroxy-ethyl]-amide], 1600 nM.

As for `[2H]C([2H])([2H])COc1ccc([C@H](CO)NC(=O)[C@H]2C[C@@H]2c2ccc(F)cc2)cn1` [Compound 35, (1S,2S)-2-(4-Fluoro-phenyl)-cyclopropanecarboxylic acid [(R)-1-(6-(2,2,2-d3)-ethoxy-pyridin-3-yl)-2-hydroxy-ethyl]-amide], the EC50 came out at 710 nM. Under `COC[C@H](NC(=O)[C@H]1C[C@@H]1c1ccccc1)c1ccc(OC2CCOCC2)nc1` [Compound 49, (1S,2S)-2-Phenyl-cyclopropanecarboxylic acid {(R)-2-methoxy-1-[6-(tetrahydro-pyran-4-yloxy)-pyridin-3-yl]-ethyl}-amide] stands 1200 nM. Under `CCOc1ccc([C@H](CO)NC(=O)[C@H]2C[C@@H]2c2ccc(F)cc2)cn1` [Compound 28, (1S,2S)-2-(4-Fluoro-phenyl)-cyclopropanecarboxylic acid [(R)-1-(6-ethoxy-pyridin-3-yl)-2-hydroxy-ethyl]-amide] stands 620 nM.
